The results in this text go back to patent publication US20120022261A1, “Colorant Compositions Containing an Oxonol Dye” (priority 2005, published 2012).

The structures appear in SMILES notation.

A short description of series [1]: 50° C. test (storage at 50° C. over 18 hours in a hot-air cabinet). The format is physicochemical. Details: key: A positive test result indicates that the product still exists in a solid and powdery state after the heat treatment; If the product undergoes a sintering process and/or starts to melt at this temperature, the test result is classified as negative. The note with it: solid product stored at 50° C. for 18 hours in a hot-air cabinet. The protocol:
The 50° C. test involves storing the product to be tested at 50° C. over a period of 18 hours in a hot-air cabinet. […] If the product undergoes a sintering process and/or starts to melt at this temperature, the test result is classified as negative.

Series [2] in a line: Solubility in organic solvents (EtOH, MEK). The format is physicochemical. The settings on record: for Solubility (g/l) EtOH: solvent EtOH; for Solubility (g/l) MEK: solvent MEK (methylethyl ketone).

As for `CCCC[N+](CCCC)(CCCC)CCCC.COCCN1C(=O)C(=CC=Cc2c(C)c(C#N)c(=O)n(CCOC)c2[O-])C(C)=C(C#N)C1=O` [reference compound], in series [1], the “50° C. Test” value is “negative”.
As for `CCCC[N+](CCCC)(CCCC)CCCC.CCN1C(=O)C(=CC=Cc2c(C)c(C#N)c(=O)n(CC)c2[O-])C(C)=C(C#N)C1=O` [ethyl, ethyl, tetrabutyl-ammonium], the “50° C. Test” value in series [1] is given as “positive”. In addition, in series [2], the “Solubility (g/l) EtOH” value was found to be 5.6 g/L and the “Solubility (g/l) MEK” value is 63.2 g/L.
The like results for `CC1=C(C#N)C(=O)N(CCCOC(C)C)C(=O)C1=CC=Cc1c(C)c(C#N)c(=O)n(C)c1[O-].CCCC[N+](CCCC)(CCCC)CCCC` [reference compound] were, in that order, “negative”, 21.3 g/L and 28.5 g/L.
The matching figures for `CCCC[N+](CCCC)(CCCC)CCCC.CCCN1C(=O)C(=CC=Cc2c(C)c(C#N)c(=O)n(CCC)c2[O-])C(C)=C(C#N)C1=O` [n-propyl, n-propyl, tetrabutyl-ammonium]: “positive”, 14 g/L and 69 g/L.
The like results for `CC1=C(C#N)C(=O)N(CC(C)C)C(=O)C1=CC=Cc1c(C)c(C#N)c(=O)n(CC(C)C)c1[O-].CCCC[N+](CCCC)(CCCC)CCCC` were, in that order, “positive”, 4 g/L and 56.2 g/L.
As for `CCCC[N+](CCCC)(CCCC)CCCC.CCCCn1c([O-])c(C=CC=C2C(=O)N(CC)C(=O)C(C#N)=C2C)c(C)c(C#N)c1=O` [ethyl, n-butyl, tetrabutyl-ammonium], the “50° C. Test” value in series [1] is on record as “positive”. Also, in series [2], the “Solubility (g/l) EtOH” value was found to be 14.3 g/L and the “Solubility (g/l) MEK” value is 41.4 g/L.
The matching figures for `CCCCCN1C(=O)C(=CC=Cc2c(C)c(C#N)c(=O)n(CCCCC)c2[O-])C(C)=C(C#N)C1=O.CCCC[N+](CCCC)(CCCC)CCCC` [n-pentyl, n-pentyl, tetrabutyl-ammonium]: “positive”, 50 g/L and 380 g/L.
The matching figures for `CCCC[N+](CCCC)(CCCC)CCCC.CCn1c([O-])c(C=CC=C2C(=O)N(CCCOC(C)C)C(=O)C(C#N)=C2C)c(C)c(C#N)c1=O` [reference compound]: “negative”, 146 g/L and 231 g/L.
As to `CCCCN1C(=O)C(=CC=Cc2c(C)c(C#N)c(=O)n(CCCC)c2[O-])C(C)=C(C#N)C1=O.CCCC[N+](CCCC)(CCCC)CCCC` [n-butyl, n-butyl, tetrabutyl-ammonium], the “50° C. Test” value in series [1] is “positive”. For the same compound, in series [2], the “Solubility (g/l) EtOH” value turned out to be 35.5 g/L and the “Solubility (g/l) MEK” value was determined as 98 g/L.
On to `CCCCC[N+](CCCCC)(CCCCC)CCCCC.CCn1c([O-])c(C=CC=C2C(=O)N(CCCOC(C)C)C(=O)C(C#N)=C2C)c(C)c(C#N)c1=O` [reference compound], for which the “50° C. Test” value in series [1] was “negative”. In addition, in series [2], the “Solubility (g/l) EtOH” value was 45 g/L and the “Solubility (g/l) MEK” value was 32 g/L.
Regarding `CC1=C(C#N)C(=O)N(C(C)C)C(=O)C1=CC=Cc1c(C)c(C#N)c(=O)n(C(C)C)c1[O-].CCCC[N+](CCCC)(CCCC)CCCC` [i-propyl, i-propyl, tetrabutyl-ammonium], the “50° C. Test” value in series [1] is given as “positive”.
As for `CCCC[N+](CCCC)(CCCC)CCCC.CCCCn1c([O-])c(C=CC=C2C(=O)N(CCCOC(C)C)C(=O)C(C#N)=C2C)c(C)c(C#N)c1=O` [reference compound], the “50° C. Test” value in series [1] is recorded as “negative”. Besides, in series [2], the “Solubility (g/l) EtOH” value turned out to be 197 g/L and the “Solubility (g/l) MEK” value amounted to 339 g/L.
